# Source: ChEMBL document CHEMBL1697821, “Development of a phospholipidosis database and predictive quantitative structure-activity relationship (QSAR) models” (Toxicol Mech Methods, 2008)
# Test system: Phospholipidosis
# Experiment: Literature-mined public compounds from Kruhlak et al phospholipidosis modelling dataset
row,Structure (SMILES),Phospholipidosis
1,CCCCCCc1ccc(O)cc1O [HEXYLRESORCINOL],Negative: based on the absence of positive reported data from WMDD
2,NCCc1c[nH]cn1 [HISTAMINE],Negative: based on the absence of positive reported data from WMDD
3,C[N+]1(C)[C@@H]2CC[C@H]1C[C@@H](OC(=O)C(O)c1ccccc1)C2.[Br-] (stereo not given in full) [HOMATROPINE METHYLBROMIDE],Negative: based on the absence of positive reported data from WMDD
4,CN1CCCN(C(c2ccccc2)c2ccc(Cl)cc2)CC1 (stereo not given) [HOMOCHLORCYCLIZINE],Positive: strong inducer confirmed by electron microscopy
5,NNc1nncc2ccccc12 [HYDRALAZINE],Negative: based on the absence of positive reported data from WMDD
6,NS(=O)(=O)c1cc2c(cc1C(F)(F)F)NCNS2(=O)=O [HYDROFLUMETHIAZIDE],Negative: based on the absence of positive reported data from WMDD
7,N=C(N)c1ccc(/C=C/c2ccc(C(=N)N)cc2O)cc1 [HYDROXYSTILBAMIDINE],Negative: based on the absence of positive reported data from WMDD
8,OCCOCCN1CCN(C(c2ccccc2)c2ccc(Cl)cc2)CC1 (stereo not given) [HYDROXYZINE],Positive: strong inducer confirmed by electron microscopy
9,CC(=O)[C@]1(O)Cc2c(O)c3c(c(O)c2[C@@H](O[C@H]2C[C@H](N)[C@H](O)[C@H](C)O2)C1)C(=O)c1ccccc1C3=O [IDARUBICIN],Negative: based on the absence of positive reported data from WMDD
10,CN(C)CCCN1c2ccccc2CCc2ccccc21 [IMIPRAMINE],Positive: strong inducer confirmed by electron microscopy
11,Nc1cc(-c2ccncc2)c[nH]c1=O [INAMRINONE],Negative: based on the absence of positive reported data from WMDD
12,CC1(C)C(/C=C/C=C/C=C/C=C2/N(CCCCS(=O)(=O)[O-])c3ccc4ccccc4c3C2(C)C)=[N+](CCCCS(=O)(=O)[O-])c2ccc3ccccc3c21.[Na+] [INDOCYANINE GREEN],Negative: based on the absence of positive reported data from WMDD
13,O=C(NC1CCN(CCc2c[nH]c3ccccc23)CC1)c1ccccc1 [INDORAMIN],Positive: strong inducer confirmed by electron microscopy
14,O[C@H]1[C@H](O)[C@@H](O)[C@H](O)[C@@H](O)[C@H]1O [INOSITOL],Negative: based on the absence of positive reported data from WMDD
15,CC(=O)NCc1c(I)c(NC(C)=O)c(I)c(C(=O)O)c1I [IODAMIDE],Negative: based on the absence of positive reported data from WMDD
16,O=C(CCCCC(=O)Nc1c(I)cc(I)c(C(=O)O)c1I)Nc1c(I)cc(I)c(C(=O)O)c1I [IODIPAMIDE],Negative: based on the absence of positive reported data from WMDD
17,O=c1[nH]c(=S)[nH]cc1I [IODOTHIOURACIL],Negative: based on the absence of positive reported data from WMDD
18,CNC(=O)c1c(I)c(NC(C)=O)c(I)c(C(=O)O)c1I [IOTHALAMIC ACID],Negative: based on the absence of positive reported data from WMDD
19,CN(C)/C=N/c1c(I)cc(I)c(CCC(=O)O)c1I [IPODATE],Negative: based on the absence of positive reported data from WMDD
20,CN(C)CCCn1c2c(c3ccccc31)CCCCCC2 [IPRINDOLE],Positive: strong inducer confirmed by electron microscopy

row,Structure (SMILES),Phospholipidosis
1,CNC(C)CCC=C(C)C (stereo not given) [ISOMETHEPTENE],Negative: based on the absence of positive reported data from WMDD
2,NNC(=O)c1ccncc1 [ISONIAZID],Negative: based on the absence of positive reported data from WMDD
3,CC(C)[N+](C)(CCC(C(N)=O)(c1ccccc1)c1ccccc1)C(C)C [ISOPROPAMIDE],Negative: based on the absence of positive reported data from WMDD
4,O=[N+]([O-])O[C@@H]1CO[C@H]2[C@@H]1OC[C@@H]2O [ISOSORBIDE MONONITRATE],Negative: based on the absence of positive reported data from WMDD
5,CC(COc1ccccc1)NC(C)C(O)c1ccc(O)cc1 (stereo not given) [ISOXSUPRINE],Negative: based on the absence of positive reported data from WMDD
6,NC[C@H]1O[C@H](O[C@H]2[C@H](O)[C@@H](O[C@H]3O[C@H](CO)[C@@H](O)[C@H](N)[C@H]3O)[C@H](N)C[C@@H]2N)[C@H](O)[C@@H](O)[C@@H]1O [KANAMYCIN A],Negative: based on the absence of positive reported data from WMDD
7,CC(=O)N1CCN(c2ccc(OCC3COC(Cn4ccnc4)(c4ccc(Cl)cc4Cl)O3)cc2)CC1 (stereo not given) [KETOCONAZOLE],Positive: weak inducer based on presence of foamy macrophages and cytoplasmic vacuolations
8,CN1CCC(=C2c3ccccc3CC(=O)c3sccc32)CC1 [KETOTIFEN],Negative: based on the absence of positive reported data from WMDD
9,CC(CCc1ccccc1)NCC(O)c1ccc(O)c(C(N)=O)c1 (stereo not given) [LABETALOL],Positive: weak inducer based on presence of foamy macrophages and cytoplasmic vacuolations
10,CC(O)C(=O)O (stereo not given) [LACTIC ACID],Negative: based on the absence of positive reported data from WMDD
11,Nc1ccn([C@@H]2CS[C@H](CO)O2)c(=O)n1 [LAMIVUDINE],Negative: based on the absence of positive reported data from WMDD
12,Cc1oncc1C(=O)Nc1ccc(C(F)(F)F)cc1 [LEFLUNOMIDE],Negative: based on the absence of positive reported data from WMDD
13,CC(C)C[C@H](N)C(=O)O [LEUCINE],Negative: based on the absence of positive reported data from WMDD
14,c1ccc([C@H]2CN3CCSC3=N2)cc1 [LEVAMISOLE],Negative: based on the absence of positive reported data from WMDD
15,C[N+](C)(C)C[C@H](O)CC(=O)[O-] [LEVOCARNITINE],Negative: based on the absence of positive reported data from WMDD
16,C[C@H]1COc2c(N3CCN(C)CC3)c(F)cc3c(=O)c(C(=O)O)cn1c23.C[C@H]1COc2c(N3CCN(C)CC3)c(F)cc3c(=O)c(C(=O)O)cn1c23.O [LEVOFLOXACIN],Negative: confirmed by electron microscopy
17,CC[C@H](OC(C)=O)C(C[C@H](C)N(C)C)(c1ccccc1)c1ccccc1 [LEVOMETHADYL ACETATE],Negative: based on the absence of positive reported data from WMDD
18,CCN(CC)CC(=O)Nc1c(C)cccc1C [LIDOCAINE],Positive: weak inducer based on presence of foamy macrophages and cytoplasmic vacuolations
19,NC[C@@H]1O[C@H](O[C@H]2[C@@H](O)[C@H](O[C@@H]3[C@@H](O)[C@H](N)C[C@H](N)[C@H]3O[C@H]3O[C@H](CO)[C@@H](O)C[C@H]3N)O[C@@H]2CO)[C@H](N)[C@@H](O)[C@@H]1O[C@H]1O[C@H](CO)[C@@H](O)[C@H](O)[C@@H]1O [LIVIDOMYCIN],Negative: based on the absence of positive reported data from WMDD
20,CN1[C@@H](CC(=O)c2ccccc2)CCC[C@H]1C[C@H](O)c1ccccc1 [LOBELINE],Negative: based on the absence of positive reported data from WMDD

row,Structure (SMILES),Phospholipidosis
1,CCOC(=O)N1CCC(=C2c3ccc(Cl)cc3CCc3cccnc32)CC1 [LORATADINE],Positive: weak inducer based on presence of foamy macrophages and cytoplasmic vacuolations
2,O=C1Nc2ccc(Cl)cc2C(c2ccccc2Cl)=NC1O (stereo not given) [LORAZEPAM],Negative: based on the absence of positive reported data from WMDD
3,CN1CCN(C2=Nc3ccccc3Oc3ccc(Cl)cc32)CC1 [LOXAPINE],Negative: based on the absence of positive reported data from WMDD
4,CCN(CC)CCNc1ccc(C)c2sc3ccccc3c(=O)c12 [LUCANTHONE],Negative: based on the absence of positive reported data from WMDD
5,CCN(CC)C(=O)[C@@H]1C=C2c3cccc4[nH]cc(c34)C[C@H]2N(C)C1 [LYSERGIDE],Positive: weak inducer based on presence of foamy macrophages and cytoplasmic vacuolations
6,NCCCC[C@H](N)C(=O)O [LYSINE],Negative: based on the absence of positive reported data from WMDD
7,OC[C@H]1O[C@H](O[C@H]2[C@H](O)[C@@H](O)[C@H](O)O[C@@H]2CO)[C@H](O)[C@@H](O)[C@@H]1O [MALTOSE],Negative: based on the absence of positive reported data from WMDD
8,CNCCCC12CCC(c3ccccc31)c1ccccc12 [MAPROTILINE],Positive: strong inducer confirmed by electron microscopy
9,CC12CC3CC(C)(C1)CC(N)(C3)C2 [MEMANTINE],Positive: weak inducer based on presence of foamy macrophages and cytoplasmic vacuolations
10,CC1=CC(=O)c2ccccc2C1=O [MENADIONE],Negative: confirmed by electron microscopy
11,C[N+]1(C)CCCC(OC(=O)C(O)(c2ccccc2)c2ccccc2)C1.[Br-] (stereo not given) [MEPENZOLATE BROMIDE],Negative: based on the absence of positive reported data from WMDD
12,C[C@H]1C[C@H]2[C@@H]3CCC4=CC(=O)C=C[C@]4(C)[C@H]3C(=O)C[C@]2(C)[C@@]1(O)C(=O)CO [MEPREDNISONE],Negative: based on the absence of positive reported data from WMDD
13,Sc1ncnc2nc[nH]c12 [MERCAPTOPURINE ANHYDROUS],Negative: based on the absence of positive reported data from WMDD
14,CN1CCCCC1CCN1c2ccccc2Sc2ccc([S+](C)[O-])cc21 (stereo not given) [MESORIDAZINE],Positive: weak inducer based on presence of foamy macrophages and cytoplasmic vacuolations
15,Cc1ccc(S(=O)(=O)NC(=O)NC2CCCCC2)cc1N [METAHEXAMIDE],Negative: based on the absence of positive reported data from WMDD
16,Cc1cc(C)cc(OCC2CNC(=O)O2)c1 (stereo not given) [METAXALONE],Negative: based on the absence of positive reported data from WMDD
17,CN(C)C(=N)N=C(N)N [METFORMIN],Negative: confirmed by electron microscopy
18,CC(=O)OC(C)C[N+](C)(C)C (stereo not given) [METHACHOLINE],Negative: based on the absence of positive reported data from WMDD
19,C[C@]12C=CC(=O)C=C1CC[C@@H]1[C@@H]2CC[C@@]2(C)[C@H]1CC[C@]2(C)O [METHANDROSTENOLONE],Negative: based on the absence of positive reported data from WMDD
20,COc1ccccc1OCC(O)COC(N)=O (stereo not given) [METHOCARBAMOL],Negative: based on the absence of positive reported data from WMDD
